The values below come from patent publication US12103904B2, “Benzoylglycine derivatives and methods of making and using same” (Duke University, priority 2016, dated 2024).

Experiment [1] concerns N. gonorrhoeae F89. The experiment in a line: Minimum Inhibitory Concentration (MIC) on GCB plates. The experiment is classed as cell-based, Neisseria gonorrhoeae. Conditions: ceftriaxone-resistant strain F89. How it is done:
(§1) Non-piliated variants of the indicated strains of Neisseria gonorrhoeae were grown overnight on GCB plates, resuspended in GCB broth with Kellogg's supplements I and II (Kellogg et al. (1963) Neisseria gonorrhoeae. I. Virulence genetically linked to colonial variation. J Bacteriol 85, 1274-1279), 10 mM MgCl2, and 20 mM sodium bicarbonate at a final OD600 of 0.018 (˜1×10^7 cfu/ml). Aliquots (5 μl) of each strain was spotted onto GCB plates containing the compounds at 2-fold dilution intervals. The MIC was defined as the lowest concentration of antibiotic on which fewer than 5 colonies appeared after 24 hrs of incubation.
(§2) FA19 is an antibiotic-susceptible strain (Maness, M. J., and Sparling, P. F. (1973) Multiple antibiotic resistance due to a single mutation in Neisseria gonorrhoeae. J Infect Dis 128, 321-330). 35/02 is a cephalosporin-intermediate resistant strain of N. gonorrhoeae isolated in Sweden in 2002 (Lindberg et al. (2007) Neisseria gonorrhoeae isolates with reduced susceptibility to cefixime and ceftriaxone: association with genetic polymorphisms in penA, mtrR, porB1b, and ponA. Antimicrob Agents Chemother 51, 2117-2122). This strain contains a mosaic penA gene (encoding variants of Penicillin-Binding Protein 2) associated with cephalosporin resistance, but the strain is not fully resistant. […] Lastly, F89 has an MIC of ceftriaxone=2 μg/ml (Unemo et al. (2011) High-level cefixime- and ceftriaxone-resistant N. gonorrhoeae in France: novel penA mosaic allele in a successful international clone causes treatment failure. Antimicrob Agents Chemother 56, 1273-1280).
(§3) “MIC50” refers to an amount, concentration or dosage of a particular test compound that achieves a 50% inhibition of a growth of a target organism. […] Representative results are also illustrated in Table 1.

Another experiment concerns N. gonorrhoeae 35/02. Described as above. The experiment is classed as cell-based, Neisseria gonorrhoeae. Conditions: cephalosporin-intermediate resistant strain 35/02. How it is done: as §1, §2, §3
The test system of another experiment is N. gonorrhoeae FA19. The experiment is described as above. It counts as cell-based, Neisseria gonorrhoeae. Conditions: antibiotic-susceptible strain FA19. How it is done: as §1, §2, §3
The subject of experiment [2] is N. gonorrhoeae HO41. The description is as above. The experiment is classed as cell-based, Neisseria gonorrhoeae. The following applies: ceftriaxone-resistant strain HO41. How it is done:
as §1, §2, §3

The test system of experiment [3] is multidrug-resistant H041 N. gonorrhoeae. The experiment can be described thus: murine gonococcal infection model (in vivo clearance). More on the design: species or system mice. From the text: FIG. 2 illustrates in vivo efficacy of Example 3 in the murine gonococcal infection model. (A) efficacy of Example 3 administered intraperitoneally. […] (B) efficacy of Example 3 administrated orally. Mice were infected with multidrug-resistant H041 N. gonorrhoeae via an established protocol.
Female Mouse Model of Infection: Female BALB/c mice (Charles River Laboratories, NCI Frederick strain of inbred BALB/cAnNCr mice, strain code 555) were allowed to acclimate to the USU animal facility in autoclaved cages and bedding and with autoclaved water and chow for 10 days. After the acclimation period and […] to bacterial inoculation (day −4), vaginal smears were stained with a modified Wright's stain (Hem3, Fisher HealthCare Protocol) and examined to identify mice in anestrus or in the diestrus stage of the estrous cycle. […] On day −2, mice were inoculated vaginally with 20 μl of strain H041 rpsL suspended in PBS; suspensions were passed through a […] filter to remove aggregates and adjusted to the absorbance A600 reading at 600 nm (A600) that was predicted to be 5×10^5 CFU/ml, which is the concentration needed to inoculate mice with the number of viable gonococci needed to infect 80% of mice (infectious dose 80; ID80). […]
Vaginal swabs were quantitatively cultured for Gc on days −1 and 0 following vaginal inoculation to confirm infection prior to treatment. […]

The subject of experiment [4] is N. gonorrhoeae F89. The following applies: literature value (Unemo et al. 2011); cited from earlier work.
Experiment [5] has as its system N. gonorrhoeae HO41. The following applies: literature value (Ohnishi et al. 2011); cited from earlier work.
For another experiment, the system named is P. aeruginosa. The experiment can be described thus: MIC against clinical strains. It counts as cell-based. Conditions: Pseudomonas aeruginosa; P. aeruginosa clinical strains (n = 10). How it is done: (§4) The antibiotic activities of the compounds useful in the methods of the disclosure are evaluated by measurements of minimum inhibitory concentrations (MICs) using E. coli, P. aeruginosa, K. pneumoniae and B. cepacia.

In another experiment the test system is K. pneumoniae. The experiment in a line: MIC against clinical strains. The experiment is classed as cell-based. The following applies: Klebsiella pneumoniae; K. pneumoniae clinical strains (n = 10). How it is done:
as §4

A further experiment relates to E. coli. The experiment can be described thus: MIC against clinical strains. The experiment is classed as cell-based. The following applies: Escherichia coli; E. coli clinical strains (n = 10). How it is done: as §4
The next experiment concerns B. cepacia. The experiment in a line: MIC against clinical strains. The experiment is classed as cell-based. The following applies: Burkholderia cepacia; B. cepacia clinical strains (n = 5). How it is done: as §4
In the next experiment the test system is E. coli strain O18:H7:K1. The experiment in a line: murine E. coli intraperitoneal sepsis model. It counts as in vivo. Conditions: mice infected with E. coli O18:H7:K1, single dose. The text has this:
FIG. 3 illustrates in vivo efficacy of Example 4 in the murine E. coli sepsis model. (A) dose response curves of Example 4 in a murine intraperitoneal sepsis model. Mice were infected with the E. coli strain O18:H7:K1.

Structures are written as SMILES. In brackets after ≈: the same amount, converted by molar mass.

With `C[C@@](O)(C(F)F)[C@H](NCCCc1ccc(-c2ccccc2)cc1)C(=O)NO`, the “MIC N. gonorrhoeae F89” value against N. gonorrhoeae F89 [1] amounted to 0.03. In addition, in the experiment with N. gonorrhoeae 35/02, the “MIC N. gonorrhoeae 35/02” value turned out to be 0.03. The “MIC N. gonorrhoeae FA19” value against N. gonorrhoeae FA19 is on record as 0.02. The “MIC N. gonorrhoeae HO41” value in the experiment with N. gonorrhoeae HO41 [2] is recorded as 0.03.
`C[C@@](O)(C(F)F)[C@H](NC(=O)c1ccc(-c2ccccc2)cc1)C(=O)NO` [Example 2, N-((2S,3S)-4,4-difluoro-3-hydroxy-1-(hydroxyamino)-3-methyl-1-oxobutan-2-yl)-[1,1′-biphenyl]-4-carboxamide]: the “MIC N. gonorrhoeae F89” value in the experiment with N. gonorrhoeae F89 [1] came out at 0.007. Also, in the experiment on N. gonorrhoeae 35/02, the “MIC N. gonorrhoeae 35/02” value came out at 0.02. Moreover, the “MIC N. gonorrhoeae FA19” value in the experiment on N. gonorrhoeae FA19 was 0.002. For the same compound, the “MIC N. gonorrhoeae HO41” value against N. gonorrhoeae HO41 [2] is 0.004.
As for `CC(C)(C)C(=O)ONC(=O)[C@@H](NC(=O)c1ccc(-c2ccccc2)cc1)[C@](C)(O)C(F)F` [Example 3, N-((2S,3S)-4,4-difluoro-3-hydroxy-3-methyl-1-oxo-1-((pivaloyloxy)amino)butan-2-yl)-[1,1′-biphenyl]-4-carboxamide], the “in vivo efficacy, administered orally” value in [3] (female BALB/c mice, vaginal infection with H041 rpsL, oral, four consecutive days) is given as “exhibited in vivo efficacy”. Besides, in [3] (mice infected with H041 N. gonorrhoeae, intraperitoneal, once daily vs twice daily at half of the dose), the “in vivo efficacy, administered intraperitoneally” value is given as “once daily treatment (circles) is more effective than the twice daily treatment at half of the dose”.
For the compound `CO/N=C(\C(=O)N[C@@H]1C(=O)N2C(C(=O)O)=C(CSc3nc(=O)c(=O)[nH]n3C)CS[C@H]12)c1csc(N)n1` [ceftriaxone], in the experiment with N. gonorrhoeae F89 [4], the “MIC of ceftriaxone, strain F89” value was 2 µg/mL. The “MIC of ceftriaxone, strain H041” value in the experiment with N. gonorrhoeae HO41 [5] was 2 to 4 µg/mL.
As usually defined, the MIC50 is an inhibitory concentration at the 50% level, which refers to growth in some studies and to a panel of isolates in others. A high value points to weaker potency. Broadly, the MIC90 is the lowest concentration that inhibits either 90% of growth or 90% of the strains tested, depending on the study. On to `C[C@@](O)(C(F)F)[C@H](NC(=O)c1ccc(C#CC#CC2CC2)cc1)C(=O)NO` [Example 4, 4-(cyclopropylbuta-1,3-diyn-1-yl)-N-((2S,3S)-4,4-difluoro-3-hydroxy-1-(hydroxyamino)-3-methyl-1-oxobutan-2-yl)benzamide], for which the “MIC N. gonorrhoeae F89” value against N. gonorrhoeae F89 [1] came out at 0.008. Besides, the “MIC N. gonorrhoeae 35/02” value against N. gonorrhoeae 35/02 is 0.063. The “MIC N. gonorrhoeae FA19” value against N. gonorrhoeae FA19 came out at 0.016. Also, in the experiment on N. gonorrhoeae HO41 [2], the “MIC N. gonorrhoeae HO41” value is reported as 0.026. Further, the MIC50 with P. aeruginosa came out at 0.16 µg/mL (≈ 0.425 µM); against K. pneumoniae it was 0.06 µg/mL (≈ 0.159 µM); against E. coli it was 0.02 µg/mL (≈ 0.0531 µM); in the experiment with B. cepacia it was 0.03 µg/mL (≈ 0.0797 µM). Further, the MIC90 against P. aeruginosa is 0.32 µg/mL (≈ 0.85 µM); against K. pneumoniae it was 0.25 µg/mL (≈ 0.664 µM); in the experiment with E. coli, 0.02 µg/mL (≈ 0.0531 µM); with B. cepacia, 0.13 µg/mL (≈ 0.345 µM). Also, in the experiment on E. coli strain O18:H7:K1, the “clearance of E. coli infection” value was “cleared E. coli infections in the majority of mice”.
